“Also recorded” adds a separate entry of the source. Non-standard residues stand in square brackets, D forms with d. Residues, ends and D or L forms follow the SMILES beside them. *: point of attachment. Phe(F5) = N[C@@H](Cc1c(F)c(F)c(F)c(F)c1F)C(=O)O; hArg = N=C(N)NCCCC[C@H](N)C(=O)O; 12Ado = NCCCCCCCCCCCC(=O)O; Nle = CCCC[C@H](N)C(=O)O; Orn = NCCC[C@H](N)C(=O)O; Abu = CC[C@H](N)C(=O)O; PhAc = O=C(Cc1ccccc1)*

In experiment [1] the test system is bleomycin-induced lung fibrosis (lung hydroxyproline content). The experiment in a line: Bleomycin mouse model, lung hydroxyproline assay. The experiment is classed as in vivo, C57Bl/6J mice. The conditions noted are these: bleomycin IP. The protocol: Abstract. Purpose. Growth hormone-releasing hormone (GHRH) is a 44-amino acid peptide that regulates growth hormone (GH) secretion. It was tested whether a GHRH receptor (GHRH-R) antagonist, MIA-602, would inhibit bleomycin-induced lung inflammation and/or fibrosis in C57Bl/6J mice. Methods. It was tested whether MIA-602 (5 μg or vehicle given subcutaneously [SC] on days 1-21) would decrease lung inflammation (at day 14) and/or fibrosis (at day 28) in mice treated with intraperitoneal (IP) bleomycin (0.8 units on days 1, 3, 7, 10, 14 and 21). […] Results. Inflammation (histopathologic scores assessed blindly) was less evident in mice treated with MIA-602 for 14 days. […] GHRH-R antagonist increased basal and maximal oxygen consumption of cultured lung fibroblasts. […] Conclusions. MIA-602 reduced lung inflammation and fibrosis due to bleomycin.
Experimental animals. 8-week old C57Bl/6J male mice (The Jackson Laboratory, Bar Harbor, Me.) were used in these experiments. Mice weighed about 26 grams at the start. Mice were randomly allocated to the experimental groups and housed in identical filter top cages in a ventilated rack. Mice were exposed to a 12-hour light/dark cycle and had free access to standard laboratory chow and water. […]
Hydroxyproline assay. […] Hydroxyproline was measured colorimetrically (560 nm) after hydrolysis using an assay kit (MAK008, Sigma-Aldrich, St. Louis, Mo.). […]

In experiment [2] the test system is gene expression in mouse lung tissue. The experiment in a line: RNAseq and pathway analysis of lung tissue of bleomycin-treated mice. The following applies: bleomycin 28 days, MIA-602 vs vehicle. In kind it is in vivo, C57Bl/6J mice. The protocol:
RNA isolation. RNA was extracted from fixed lung tissue in paraffin blocks using a Quick-RNA™ FFPE Kit (R1008, Zymo Research, Irvine, Calif.) following the manufacturer's protocol (Patel P, Selvarajah S, Guerard K, Bartlett J, Lapointe J, Berman D, Okello J, Park P (2017). PLoS ONE 12:e0179732). Samples were deparaffinized, digested with proteinase K and decrosslinked at 65° C. for 15 minutes. RNA lysis buffer was added and mixed with ethanol. The mixtures were transferred to spin columns to isolate total RNA.
RNAseq and Pathway analyses. At least 10 ng of total RNA was used as input for the KAPA RNA HyperPrep Kit with RiboErase (HMR) to create ribosomal RNA-depleted sequencing libraries, including sample indexing, to allow for multiplexing. Cluster generation and sequencing was done on the Illumina cBOT and HiSeq 3000 using reagents provided by Illumina, finally generating >32 million single-end 100 base reads per sample.
De-multiplexed FASTQ files were created with Illumina supplied scripts in BCL2FASTQ software (v2.17). […]
Gene counts were normalized using trimmed mean of M-values (TMM) method. Differential expression between groups was calculated with the exact test implemented in edgeR (Robinson M, McCarthy D, Smyth G (2010). Bioinformatics 26:139-140). […]

For `CCCC[C@H](NC(=O)[C@@H](NC(=O)[C@H](CC(=O)O)NC(=O)[C@H](CCC(N)=O)NC(=O)[C@H](CC(C)C)NC(=O)[C@H](CC(C)C)NC(=O)[C@H](CCCN)NC(=O)[C@H](Cc1c[nH]cn1)NC(=O)[C@H](C)NC(=O)[C@H](CO)NC(=O)[C@H](CC(C)C)NC(=O)[C@H](CCC(N)=O)NC(=O)[C@H](CC)NC(=O)[C@H](CC(C)C)NC(=O)[C@@H](NC(=O)[C@H](CCCN)NC(=O)[C@H](Cc1c[nH]cn1)NC(=O)[C@H](Cc1ccc(OC)cc1)NC(=O)[C@H](CCCCNC(=N)N)NC(=O)[C@H](C)NC(=O)[C@@H](NC(=O)[C@H](Cc1c(F)c(F)c(F)c(F)c1F)NC(=O)[C@@H](NC(=O)[C@H](C)NC(=O)[C@H](CC(=O)O)NC(=O)[C@@H](CCCNC(=N)N)NC(=O)[C@H](Cc1ccc(O)cc1)NC(=O)CCCCCCCCCCCNC(=O)Cc1ccccc1)[C@@H](C)CC)[C@@H](C)O)C(C)C)[C@@H](C)CC)C(=O)N[C@H](CCCNC(=N)N)C(=O)N[C@@H](CCCCNC(=N)N)C(N)=O` [MIA-602, PhAC-Ada, Tyr D-Arg, Asp, Ala, Ile, 5FPhe, Thr, Ala, Har, Tyr(Me), His, Orn, Val, Leu, Abu, Gin, Leu, Ser, Ala, His, Om, Leu, Leu, Gin, Asp, Ile; Nle, D-Arg, Har NH2, reference compound] ({PhAc-12Ado}-Y[dR]DAI[Phe(F5)]TA[hArg]Y(Me)H[Orn]VL[Abu]QLSAH[Orn]LLQDI[Nle][dR][hArg]-NH2), the “lung hydroxyproline (HP) content, change (in words)” value in experiment [1] (14 days, MIA-602 5 μg/day sc) was “did not increase significantly”; in experiment [1] (28 days, MIA-602 5 μg/day sc days 1-21, right lung) it was “increased significantly in bleomycin-treated mice that received vehicle, but not in bleomycin-treated mice that received MIA-602; also recorded: No significant increase in HP content”. Besides, the “lung gene expression, RNA-seq pathway analysis (in words)” value in experiment [2] is “suppression of the adaptive immune response, T cell differentiation and activation and cytokine production; also recorded: downregulation of T cell receptor complex genes (CD3E, CD3G, CD4, and CD8A)”.

Values taken from patent US20210395327A1, “Growth Hormone-Releasing Hormone Antagonists and Uses Thereof” (United States Government As Represented By The Department …, priority 2019, published 2021).
